Laboratory results published in patent US4942245A, “Benzimidazole Derivatives” (Kyorin Pharmaceutical Co., Ltd., priority 1987, dated 1990).

Assays:
leukotriene D4 = assay: Leukotriene D4-induced bronchoconstriction (modified Konzett-Rossler, transpulmonary pressure) in anesthetized guinea pig, oral administration; assay type: in vivo, male Hartley guinea pig; conditions: p.o., 2 hours before leukotriene D4 (3 μg/kg, i.v.)
Method: A male Hartley guinea pig weighing about 450 g was anesthetized with sodium pentobarbital (30 mg/kg,i.p.). The change in transpulmonary pressure was measured by modifying the method of Konzett-Rossler (J. Harvey, et al., J. Pharmacol. Method. 9, 147-155, 1983) under an artificial ventilation. Animal was treated with indomethacin (10 mg/kg,i.v.) and propranolol (1 mg/kg,i.v.). Bronchoconstrictor response was obtained by bolus injection of leukotriene D4 (3 μg/kg,i.v.). Test compounds were suspended in 5% Gum Arabic solution and orally administered 2 hours before the challenge with leukotriene D4.

leukotriene = conditions: oral; P. Sheard et al, 1977; cited from earlier work

Compound	Inhibition (%) of LTD4-induced bronchoconstrictor response (leukotriene D4; 200 mg/kg)	Inhibition (%) of LTD4-induced bronchoconstrictor response (leukotriene D4; 100 mg/kg)	also measured
CCCc1c(OCCCCCSc2nc3cc(C(=O)O)ccc3[nH]2)ccc(C(C)=O)c1O [Example 24]	57.1%		
CCCc1c(OCCCC[S+]([O-])c2nc3cc(C(=O)O)ccc3[nH]2)ccc(C(C)=O)c1O (stereo not drawn) [Example 12]	33.3%		
CCCc1c(OCCCCc2nc3ccc(C(=O)O)cc3[nH]2)ccc(C(C)=O)c1O [Example 36, 2-[4-(4-Acetyl-3-hydroxy-2-propylphenoxy)butyl]-benzimidazole-5-carboxylic acid]	88.6%	44.6%	
CCCc1c(OCCCCSc2nc3cc(C(=O)O)ccc3[nH]2)ccc(C(C)=O)c1O [Example 11]		84.6%	Inhibition (%) of LTD4-induced bronchoconstrictor response (leukotriene D4; 25 mg/kg): 27.6%; Inhibition (%) of LTD4-induced bronchoconstrictor response (leukotriene D4; 50 mg/kg): 73.1%
CCCc1c(OCC(O)COc2ccc3c(=O)cc(C(=O)O)oc3c2CCC)ccc(C(C)=O)c1O (stereo not drawn) [FPL55712]			effect of leukotriene antagonist when administered orally (leukotriene): no effect
CCCc1c(OCCCSc2nc3ccc(C(=O)O)cc3[nH]2)ccc(C(C)=O)c1O [Example 1, 2-[3-(4-Acetyl-3-hydroxy-2-propylphenoxy)propyl-thio]benzimidazole-5-carboxylic acid]	63.3%	47.8%	
CCCc1c(OCCCS(=O)(=O)c2nc3ccc(C(=O)O)cc3[nH]2)ccc(C(C)=O)c1O [Example 6, 2-[3-(4-Acetyl-3-hydroxy-2-propylphenoxy)propylsulfonyl]benzimidazole-5-carboxylic acid]	40.5%		
CCCc1c(OCCCS(=O)(=O)c2nc3ccccc3[nH]2)ccc(C(C)=O)c1O [Ref. 1, 2-[3-(4-acetyl-3-hydroxy-2-propylphenoxy)propylsulfonyl]-benzimidazole, reference compound]			Inhibition (%) of LTD4-induced bronchoconstrictor response (leukotriene D4; 400 mg/kg): 19.5%
